In publication PMC12508063, “Chloroindazole based estrogen receptor β ligands with favorable pharmacokinetics promote functional remyelination and visual recovery” (Scientific Reports, 2025):
Several values for one entry are separate records, joined by “and”; a condition that tells them apart may be missing. Equal values may be shown once.

Legend:
ERβ = biological target: T1, ERβ (Homo sapiens, UniProt Q92731); assay: ER reporter gene assay in HEK 293 T cells (ER-luciferase reporter); type: cell-based; settings: for Reporter gene assay raw data, ERb: ERb data block (head r19), 4 replicate columns; for ERb reporter gene assay raw data (response): four replicate columns per compound
T1 construct: expressed in transfected cells; host or cells: HEK 293 T cells
T1 sequence (Q92731 whole entry, species assumed): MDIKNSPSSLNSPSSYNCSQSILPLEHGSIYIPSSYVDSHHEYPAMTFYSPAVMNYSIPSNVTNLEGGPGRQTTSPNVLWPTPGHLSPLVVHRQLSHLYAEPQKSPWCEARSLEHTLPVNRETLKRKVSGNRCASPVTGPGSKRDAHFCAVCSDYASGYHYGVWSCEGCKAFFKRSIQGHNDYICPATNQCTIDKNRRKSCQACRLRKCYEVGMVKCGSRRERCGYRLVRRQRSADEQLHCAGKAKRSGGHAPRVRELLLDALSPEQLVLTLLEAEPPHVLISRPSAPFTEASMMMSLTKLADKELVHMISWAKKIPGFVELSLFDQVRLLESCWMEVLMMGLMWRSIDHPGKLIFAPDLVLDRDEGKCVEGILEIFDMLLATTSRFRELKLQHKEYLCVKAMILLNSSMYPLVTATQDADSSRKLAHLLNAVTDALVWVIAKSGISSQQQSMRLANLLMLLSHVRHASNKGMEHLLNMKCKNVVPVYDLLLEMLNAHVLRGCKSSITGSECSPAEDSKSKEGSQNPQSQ

ERα = biological target: T2, ERα (Homo sapiens, UniProt P03372); assay: as above; type: cell-based; settings: for Reporter gene assay raw data, ERa: 4 replicate columns
T2 construct: expressed in transfected cells; host or cells: HEK 293 T cells
T2 sequence (P03372 1-595): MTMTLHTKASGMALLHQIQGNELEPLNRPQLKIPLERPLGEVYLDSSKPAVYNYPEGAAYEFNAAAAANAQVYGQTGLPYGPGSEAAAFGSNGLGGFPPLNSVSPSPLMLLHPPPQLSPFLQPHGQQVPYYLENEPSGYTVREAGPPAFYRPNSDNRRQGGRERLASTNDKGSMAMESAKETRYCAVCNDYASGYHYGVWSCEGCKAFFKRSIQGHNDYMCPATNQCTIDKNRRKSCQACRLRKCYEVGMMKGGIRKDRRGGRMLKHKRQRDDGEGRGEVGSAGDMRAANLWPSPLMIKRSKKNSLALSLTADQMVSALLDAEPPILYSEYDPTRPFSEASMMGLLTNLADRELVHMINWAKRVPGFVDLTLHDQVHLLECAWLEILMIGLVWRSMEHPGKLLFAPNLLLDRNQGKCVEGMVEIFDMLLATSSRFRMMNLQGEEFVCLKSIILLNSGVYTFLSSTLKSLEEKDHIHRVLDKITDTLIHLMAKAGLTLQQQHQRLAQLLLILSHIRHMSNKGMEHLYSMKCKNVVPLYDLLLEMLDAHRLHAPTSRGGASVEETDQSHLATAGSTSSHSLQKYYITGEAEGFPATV

CCCc1c(-c2ccc(O)cc2)nn(-c2ccc(O)cc2)c1-c1ccc(O)cc1 [PPT, propylpyrazoletriol]
Reporter gene assay raw data, ERb (ERβ; Log M -6): 19.5014 and 20.0849 and 23.8882 and 22.6897 | ERb reporter gene assay raw data (response) (ERβ; Log M -6): 21.485 and 20.205 and 17.3019 and 20.855 | Reporter gene assay raw data, ERb (ERβ; Log M -6.47756): 16.4485 and 15.2513 and 19.8755 and 17.389 | ERb reporter gene assay raw data (response) (ERβ; Log M -6.47756): 18.9594 and 20.0074 and 15.2776 and 15.7954 | Reporter gene assay raw data, ERb (ERβ; Log M -6.95468): 10.4714 and 10.5487 and 14.4972 and 14.256 | ERb reporter gene assay raw data (response) (ERβ; Log M -6.95468): 18.4622 and 14.9797 and 13.6041 and 14.8139 | Reporter gene assay raw data, ERb (ERβ; Log M -7.4318): 5.476 and 4.22 and 5.578 and 6.583 | ERb reporter gene assay raw data (response) (ERβ; Log M -7.4318): 10.9473 and 9.898 and 9.008 and 8.195 | Reporter gene assay raw data, ERb (ERβ; Log M -7.91009): 1.07 and -0.6207 and 3.16 and 0.9592 | ERb reporter gene assay raw data (response) (ERβ; Log M -7.91009): 6.169 and 4.563 and 6.678 and 4.2739 | Reporter gene assay raw data, ERb (ERβ; Log M -8.3851): 0.7593 and -1.643 and 0.4997 and -2.03 | ERb reporter gene assay raw data (response) (ERβ; Log M -8.3851): 3.945 and 3.96 and 6.88 and 1.445 | Reporter gene assay raw data, ERb (ERβ; Log M -8.86328): -0.4322 and -1.466 and 2.716 and -1.501 | ERb reporter gene assay raw data (response) (ERβ; Log M -8.86328): 5.736 and 3.2685 and 3.216 and 2.057 | Reporter gene assay raw data, ERb (ERβ; Log M -9.34008): -0.1098 and -1.507 and 1.45 and -0.6901 | ERb reporter gene assay raw data (response) (ERβ; Log M -9.34008): 3.967 and 2.823 and 2.379 and 1.871 | Reporter gene assay raw data, ERb (ERβ; Log M -9.81816): -0.5451 and -0.7163 and 0.1509 and -1.511 | ERb reporter gene assay raw data (response) (ERβ; Log M -9.81816): 1.577 and 2.9115 and 0.9432 and -0.07211 | Reporter gene assay raw data, ERb (ERβ; Log M -10.2941): -1.084 and -0.1568 and -0.6795 and -0.3425 | ERb reporter gene assay raw data (response) (ERβ; Log M -10.2941): 1.736 and 0.3306 and 0.3765 and -0.321 | Reporter gene assay raw data, ERb (ERβ; Log M -10.7721): -1.226 and -1.1541 and -1.046 and -1.761 | ERb reporter gene assay raw data (response) (ERβ; Log M -10.7721): -0.8597 and 0.03179 and -1.5452 and -1.38 | Reporter gene assay raw data, ERb (ERβ; Log M -11.248): -0.3317 and 0.5222 and -1.104 and -1.502 | ERb reporter gene assay raw data (response) (ERβ; Log M -11.248): -0.3358 and 0.6884 and 0.7035 and 0.7906 | ERb reporter gene assay raw data (response) (ERβ; Log M -13): 0.5566 and -0.5566 and 0.8119 and -0.8119 | Reporter gene assay raw data, ERa (ERα; Log M -6, first ERa data block (head r2)): 86.0824 and 79.2296 and 78.3082 and 79.1573 | Reporter gene assay raw data, ERa (ERα; Log M -6, second ERa data block (head r34)): 87.9608 and 88.617 and 93.8527 and 87.2476 | Reporter gene assay raw data, ERa (ERα; Log M -6.47756, first ERa data block (head r2)): 90.8624 and 88.5783 and 89.3316 and 78.0129 | Reporter gene assay raw data, ERa (ERα; Log M -6.47756, second ERa data block (head r34)): 88.252 and 85.7322 and 87.7049 and 87.7177 | Reporter gene assay raw data, ERa (ERα; Log M -6.95468, first ERa data block (head r2)): 87.1769 and 84.3715 and 90.3303 and 89.4496 | Reporter gene assay raw data, ERa (ERα; Log M -6.95468, second ERa data block (head r34)): 95.811 and 91.5253 and 94.4371 and 90.1172 | Reporter gene assay raw data, ERa (ERα; Log M -7.4318, first ERa data block (head r2)): 90.4114 and 87.987 and 94.8392 and 90.7082 | Reporter gene assay raw data, ERa (ERα; Log M -7.4318, second ERa data block (head r34)): 106.107 and 97.2934 and 83.08 and 92.8748 | Reporter gene assay raw data, ERa (ERα; Log M -7.91009, first ERa data block (head r2)): 85.6554 and 95.12 and 98.5558 and 94.3071 | Reporter gene assay raw data, ERa (ERα; Log M -7.91009, second ERa data block (head r34)): 95.0594 and 87.5842 and 88.9618 and 84.8971 | Reporter gene assay raw data, ERa (ERα; Log M -8.3851, first ERa data block (head r2)): 92.5458 and 88.4315 and 85.0988 and 85.7612 | Reporter gene assay raw data, ERa (ERα; Log M -8.3851, second ERa data block (head r34)): 94.3547 and 89.3596 and 80.8197 and 80.3933 | Reporter gene assay raw data, ERa (ERα; Log M -8.86328, first ERa data block (head r2)): 84.8361 and 86.8057 and 82.3746 and 77.2465 | Reporter gene assay raw data, ERa (ERα; Log M -8.86328, second ERa data block (head r34)): 85.9296 and 87.1693 and 76.3853 and 76.3319 | Reporter gene assay raw data, ERa (ERα; Log M -9.34008, first ERa data block (head r2)): 74.7989 and 75.6545 and 77.292 and 82.2909 | Reporter gene assay raw data, ERa (ERα; Log M -9.34008, second ERa data block (head r34)): 84.5588 and 86.4988 and 76.9768 and 80.3165 | Reporter gene assay raw data, ERa (ERα; Log M -9.81816, first ERa data block (head r2)): 61.8395 and 65.1501 and 66.4827 and 65.905 | Reporter gene assay raw data, ERa (ERα; Log M -9.81816, second ERa data block (head r34)): 75.5533 and 73.0444 and 68.3421 and 69.495 | Reporter gene assay raw data, ERa (ERα; Log M -10.2941, first ERa data block (head r2)): 40.0072 and 40.9439 and 38.9576 and 38.1761 | Reporter gene assay raw data, ERa (ERα; Log M -10.2941, second ERa data block (head r34)): 46.869 and 47.8915 and 37.7547 and 39.1778 | Reporter gene assay raw data, ERa (ERα; Log M -10.7721, first ERa data block (head r2)): 19.4359 and 14.8698 and 17.3697 and 15.2983 | Reporter gene assay raw data, ERa (ERα; Log M -10.7721, second ERa data block (head r34)): 13.881 and 18.514 and 18.2618 and 16.0774 | Reporter gene assay raw data, ERa (ERα; Log M -11.248, first ERa data block (head r2)): 4.705 and 3.999 and 3.885 and 4.444 | Reporter gene assay raw data, ERa (ERα; Log M -11.248, second ERa data block (head r34)): 6.356 and 4.574 and 4.487 and 4.951 | ERa reporter gene assay raw data (response) (ERα; Log M -13, four replicate columns per compound): 0.8253 and -0.8253 and 1.478 and -1.478
